Assay results published in US20100003191A1, “AURONE DERIVATIVE-CONTAINING COMPOSITION FOR DIAGNOSIS” (NAGASAKI UNIVERSITY, priority 2006, published 2010).

Assay: In vivo radioactivity biodistribution experiment in normal mice (Example 1, Table 13)
Set-up: species or system ddY mice
Method: ^125I-labeled compounds were diluted with 10% ethanol-containing physiological saline. […] After their blood was collected, organs were removed, and the weights and radioactivities thereof were measured.
When any of the aurone derivatives was used, sufficient radioactivity to perform imaging of intracerebral amyloid migrated to the brain from the early stage of injection (1.7-4.6% ID/g). […] It was also shown that, in any of the aurone derivatives, in vivo radioactivity behavior is discharged mainly from the liver to the bile duct and the intestinal tract.

Biodistribution of radioactivity, Blood (2 min after injection) | Biodistribution of radioactivity, Blood (10 min after injection) | Biodistribution of radioactivity, Blood (30 min after injection) | Biodistribution of radioactivity, Blood (60 min after injection) | Biodistribution of radioactivity, Brain (2 min after injection) | Biodistribution of radioactivity, Brain (10 min after injection) | Biodistribution of radioactivity, Brain (30 min after injection) | Biodistribution of radioactivity, Brain (60 min after injection) | Biodistribution of radioactivity, Heart (2 min after injection) | Biodistribution of radioactivity, Heart (10 min after injection) | Biodistribution of radioactivity, Heart (30 min after injection) | Biodistribution of radioactivity, Heart (60 min after injection) | Biodistribution of radioactivity, Intestine (2 min after injection) | Biodistribution of radioactivity, Intestine (10 min after injection) | Biodistribution of radioactivity, Intestine (30 min after injection) | Biodistribution of radioactivity, Intestine (60 min after injection) | Biodistribution of radioactivity, Kidney (2 min after injection) | Biodistribution of radioactivity, Kidney (10 min after injection) | Biodistribution of radioactivity, Kidney (30 min after injection) | Biodistribution of radioactivity, Kidney (60 min after injection) | other results | Compound
2.69 (0.29) % injected dose per gram | 1.96 (0.34) % injected dose per gram | 1.48 (0.15) % injected dose per gram | 0.94 (0.25) % injected dose per gram | 1.89 (0.38) % injected dose per gram | 0.69 (0.21) % injected dose per gram | 0.26 (0.04) % injected dose per gram | 0.11 (0.03) % injected dose per gram | 3.80 (0.66) % injected dose per gram | 1.36 (0.66) % injected dose per gram | 0.55 (0.29) % injected dose per gram | 0.45 (0.11) % injected dose per gram | 1.65 (0.35) % injected dose per gram | 5.37 (1.10) % injected dose per gram | 9.50 (1.45) % injected dose per gram | 11.85 (2.70) % injected dose per gram | 7.84 (1.92) % injected dose per gram | 8.31 (3.19) % injected dose per gram | 10.37 (2.34) % injected dose per gram | 4.51 (1.43) % injected dose per gram | Biodistribution of radioactivity, Liver (2 min after injection): 10.21 (1.87) % injected dose per gram; Biodistribution of radioactivity, Liver (10 min after injection): 7.86 (2.25) % injected dose per gram; Biodistribution of radioactivity, Liver (30 min after injection): 5.60 (0.59) % injected dose per gram; Biodistribution of radioactivity, Liver (60 min after injection): 4.33 (0.76) % injected dose per gram; Biodistribution of radioactivity, Lung (2 min after injection): 4.02 (0.83) % injected dose per gram; Biodistribution of radioactivity, Lung (10 min after injection): 2.44 (0.54) % injected dose per gram; Biodistribution of radioactivity, Lung (30 min after injection): 1.51 (0.41) % injected dose per gram; Biodistribution of radioactivity, Lung (60 min after injection): 1.17 (0.26) % injected dose per gram; Biodistribution of radioactivity, Pancreas (2 min after injection): 3.17 (0.68) % injected dose per gram; Biodistribution of radioactivity, Pancreas (10 min after injection): 1.04 (0.25) % injected dose per gram; Biodistribution of radioactivity, Pancreas (30 min after injection): 0.55 (0.21) % injected dose per gram; Biodistribution of radioactivity, Pancreas (60 min after injection): 0.30 (0.06) % injected dose per gram; Biodistribution of radioactivity, Spleen (2 min after injection): 1.76 (0.28) % injected dose per gram; Biodistribution of radioactivity, Spleen (10 min after injection): 0.81 (0.54) % injected dose per gram; Biodistribution of radioactivity, Spleen (30 min after injection): 0.51 (0.10) % injected dose per gram; Biodistribution of radioactivity, Spleen (60 min after injection): 0.37 (0.11) % injected dose per gram; Biodistribution of radioactivity, Stomach (2 min after injection): 1.21 (0.29) % injected dose per organ; Biodistribution of radioactivity, Stomach (10 min after injection): 1.35 (1.25) % injected dose per organ; Biodistribution of radioactivity, Stomach (30 min after injection): 1.87 (0.79) % injected dose per organ; Biodistribution of radioactivity, Stomach (60 min after injection): 1.51 (1.04) % injected dose per organ | CN(C)c1ccc(/C=C2\Oc3ccc([125I])cc3C2=O)cc1 [[^125I]7]
4.16 (0.98) % injected dose per gram | 2.72 (1.01) % injected dose per gram | 2.84 (1.48) % injected dose per gram | 2.41 (0.70) % injected dose per gram | 3.17 (0.45) % injected dose per gram | 1.22 (0.09) % injected dose per gram | 0.32 (0.02) % injected dose per gram | 0.24 (0.05) % injected dose per gram | 5.07 (0.47) % injected dose per gram | 2.17 (0.34) % injected dose per gram | 0.98 (0.21) % injected dose per gram | 0.84 (0.37) % injected dose per gram | 3.06 (1.11) % injected dose per gram | 6.59 (3.43) % injected dose per gram | 10.34 (4.91) % injected dose per gram | 14.04 (2.87) % injected dose per gram | 9.91 (2.00) % injected dose per gram | 11.44 (2.76) % injected dose per gram | 6.00 (2.14) % injected dose per gram | 3.52 (0.77) % injected dose per gram | Biodistribution of radioactivity, Liver (2 min after injection): 11.26 (2.81) % injected dose per gram; Biodistribution of radioactivity, Liver (10 min after injection): 9.70 (2.78) % injected dose per gram; Biodistribution of radioactivity, Liver (30 min after injection): 6.11 (2.16) % injected dose per gram; Biodistribution of radioactivity, Liver (60 min after injection): 4.91 (0.72) % injected dose per gram; Biodistribution of radioactivity, Lung (2 min after injection): 6.86 (0.65) % injected dose per gram; Biodistribution of radioactivity, Lung (10 min after injection): 4.44 (0.39) % injected dose per gram; Biodistribution of radioactivity, Lung (30 min after injection): 2.41 (0.66) % injected dose per gram; Biodistribution of radioactivity, Lung (60 min after injection): 2.94 (0.62) % injected dose per gram; Biodistribution of radioactivity, Pancreas (2 min after injection): 4.83 (0.60) % injected dose per gram; Biodistribution of radioactivity, Pancreas (10 min after injection): 1.81 (0.15) % injected dose per gram; Biodistribution of radioactivity, Pancreas (30 min after injection): 0.83 (0.10) % injected dose per gram; Biodistribution of radioactivity, Pancreas (60 min after injection): 0.77 (0.28) % injected dose per gram; Biodistribution of radioactivity, Spleen (2 min after injection): 2.37 (0.41) % injected dose per gram; Biodistribution of radioactivity, Spleen (10 min after injection): 1.28 (0.19) % injected dose per gram; Biodistribution of radioactivity, Spleen (30 min after injection): 0.86 (0.14) % injected dose per gram; Biodistribution of radioactivity, Spleen (60 min after injection): 0.75 (0.17) % injected dose per gram; Biodistribution of radioactivity, Stomach (2 min after injection): 1.30 (0.43) % injected dose per organ; Biodistribution of radioactivity, Stomach (10 min after injection): 2.53 (0.97) % injected dose per organ; Biodistribution of radioactivity, Stomach (30 min after injection): 2.82 (1.88) % injected dose per organ; Biodistribution of radioactivity, Stomach (60 min after injection): 2.26 (0.88) % injected dose per organ | CNc1ccc(/C=C2\Oc3ccc([125I])cc3C2=O)cc1 [[^125I]12]
